How the values were obtained:
[1] = molecular target: Aldo-keto reductase family 1 member B1 (Homo sapiens, UniProt P15121); test: Inhibition of aldose reductase (unknown origin) using DL-glyceraldehyde as substrate
[2] = molecular target: Nitric oxide synthase, inducible (Homo sapiens, UniProt P35228); test: Inhibition of iNOS (unknown origin)
NCI-H23 = test: Anti-cancer activity against human NCI-H23 cells; format: functional, cell-based
NCI-H460 [3] = test: Cytotoxicity against human NCI-H460 cells assessed as cell viability by MTT assay; format: functional, cell-based
PC-12 [4] = test: Neuroprotection against Amyloid beta (25 to 35)-induced toxicity in rat PC-12 cells assessed as increase in cell viability at 50 uM for 24 hrs by MTT assay relative to control; format: functional
PC-12 [5] = test: Neuroprotection against Amyloid beta (25 to 35)-induced toxicity in rat PC-12 cells assessed as increase in cell viability at 25 uM for 24 hrs by MTT assay relative to control; format: functional
PC-12 [6] = test: Neuroprotection against Amyloid beta (25 to 35)-induced toxicity in rat PC-12 cells assessed as increase in cell viability at 10 uM for 24 hrs by MTT assay relative to control; format: functional
[7] = Permeability of the compound by PAMPA-BBB assay; format: ADME; conditions: read-out: permeability
[8] = Antioxidant activity assessed as DPPH radical scavenging activity incubated for 30 mins by spectrophotometric analysis; format: functional
T-24 = test: Anti-cancer activity against human T24 cells; format: functional, cell-based
PC-12 [9] = test: Neurotrophic activity in rat PC-12 cells assessed as induction of NGF-mediated neurite outgrowth at 10 uM measured after 72 hrs relative to control; format: functional
K562 = test: Anti-cancer activity against human K562 cells; format: functional, cell-based
Bel-7402 = test: Anti-cancer activity against human Bel-7402 cells; format: functional, cell-based
HL-60 = test: Anti-cancer activity against human HL-60 cells; format: functional, cell-based
THP-1 = test: Anti-cancer activity against human THP-1 cells; format: functional, cell-based
SGC-7901 = test: Anti-cancer activity against human SGC-7901 cells; format: functional, cell-based
KB = test: Anti-cancer activity against human KB cells; format: functional, cell-based
HepG2 [10] = test: Anti-cancer activity against human HepG2 cells; format: functional, cell-based
MCF7 [11] = test: Anti-cancer activity against human MCF7 cells; format: functional, cell-based
NCI-H460 [12] = test: Anti-cancer activity against human NCI-H460 cells; format: functional, cell-based
NCI-H187 = test: Anti-cancer activity against human NCI-H187 cells; format: functional, cell-based
[13] = molecular target: Tyrosine-protein phosphatase non-receptor type 1 (Homo sapiens, UniProt P18031); test: Inhibition of PTP1B (unknown origin)
NCI-H292 = test: Anti-cancer activity against human NCI-H292 cells; format: functional, cell-based
RAW264.7 [14] = test: Antiinflammatory activity in mouse RAW264.7 cells assessed as inhibition of LPS-induced NO production at 25 uM measured after 24 hrs; format: functional
[15] = Antioxidant activity assessed as DPPH radical scavenging activity at 100 ug/ml incubated for 30 mins by spectrophotometric analysis; format: functional; conditions: dose 100.0 µg/ml
MCF7 [16] = test: Cytotoxicity against human MCF7 cells assessed as cell viability incubated for 48 hrs by MTS assay; format: functional, cell-based; conditions: MCF7, 48 h
MDA-MB-231 = test: Cytotoxicity against human MDA-MB-231 cells assessed as cell viability incubated for 72 hrs by MTT assay; format: functional, cell-based; conditions: MDA-MB-231, 72 h
HepG2 [17] = test: Cytotoxicity against human HepG2 cells assessed as cell viability incubated for 72 hrs by MTT assay; format: functional, cell-based; conditions: HepG2, 72 h
HT-29 = test: Cytotoxicity against human HT-29 cells assessed as cell viability incubated for 72 hrs by MTT assay; format: functional, cell-based; conditions: HT-29, 72 h
RAW264.7 [18] = test: Antiinflammatory activity in mouse RAW264.7 cells assessed as inhibition of H2O2-induced intracellular ROS production at 50 ug/ml measured after 24 hrs by DCFH-DA staining based fluorescence assay; format: functional
RAW264.7 [19] = test: Antiinflammatory activity in mouse RAW264.7 cells assessed as inhibition of LPS-induced TNFalpha secretion at 50 ug/ml measured after 24 hrs; format: functional
RAW264.7 [20] = test: Antiinflammatory activity in mouse RAW264.7 cells assessed as inhibition of LPS-induced NO production at 50 ug/ml measured after 24 hrs; format: functional
FaDu = test: Cytotoxicity against human FaDu cells assessed as cell viability incubated for 24 hrs by CCK-8 assay; format: functional, cell-based
Alpha amylase = Alpha amylase (Homo sapiens, UniProt P0DUB6); test: Inhibition of alpha-amylase (unknown origin) by HPLC analysis
Alpha amylase, sequence (P0DUB6 whole entry): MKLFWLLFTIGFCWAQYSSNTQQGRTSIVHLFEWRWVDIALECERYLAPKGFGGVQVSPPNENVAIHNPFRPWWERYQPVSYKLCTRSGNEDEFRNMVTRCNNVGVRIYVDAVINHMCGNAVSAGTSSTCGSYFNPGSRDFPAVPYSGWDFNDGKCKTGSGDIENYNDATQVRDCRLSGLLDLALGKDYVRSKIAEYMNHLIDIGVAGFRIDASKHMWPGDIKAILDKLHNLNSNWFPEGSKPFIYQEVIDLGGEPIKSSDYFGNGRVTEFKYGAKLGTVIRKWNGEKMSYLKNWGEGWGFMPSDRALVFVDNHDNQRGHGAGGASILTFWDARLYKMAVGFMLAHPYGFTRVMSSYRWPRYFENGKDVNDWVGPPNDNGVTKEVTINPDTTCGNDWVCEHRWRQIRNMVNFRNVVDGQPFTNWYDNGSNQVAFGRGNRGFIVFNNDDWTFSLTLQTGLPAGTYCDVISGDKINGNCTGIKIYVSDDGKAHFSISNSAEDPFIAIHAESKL

Nitric oxide synthase, inducible, sequence (P35228 whole entry): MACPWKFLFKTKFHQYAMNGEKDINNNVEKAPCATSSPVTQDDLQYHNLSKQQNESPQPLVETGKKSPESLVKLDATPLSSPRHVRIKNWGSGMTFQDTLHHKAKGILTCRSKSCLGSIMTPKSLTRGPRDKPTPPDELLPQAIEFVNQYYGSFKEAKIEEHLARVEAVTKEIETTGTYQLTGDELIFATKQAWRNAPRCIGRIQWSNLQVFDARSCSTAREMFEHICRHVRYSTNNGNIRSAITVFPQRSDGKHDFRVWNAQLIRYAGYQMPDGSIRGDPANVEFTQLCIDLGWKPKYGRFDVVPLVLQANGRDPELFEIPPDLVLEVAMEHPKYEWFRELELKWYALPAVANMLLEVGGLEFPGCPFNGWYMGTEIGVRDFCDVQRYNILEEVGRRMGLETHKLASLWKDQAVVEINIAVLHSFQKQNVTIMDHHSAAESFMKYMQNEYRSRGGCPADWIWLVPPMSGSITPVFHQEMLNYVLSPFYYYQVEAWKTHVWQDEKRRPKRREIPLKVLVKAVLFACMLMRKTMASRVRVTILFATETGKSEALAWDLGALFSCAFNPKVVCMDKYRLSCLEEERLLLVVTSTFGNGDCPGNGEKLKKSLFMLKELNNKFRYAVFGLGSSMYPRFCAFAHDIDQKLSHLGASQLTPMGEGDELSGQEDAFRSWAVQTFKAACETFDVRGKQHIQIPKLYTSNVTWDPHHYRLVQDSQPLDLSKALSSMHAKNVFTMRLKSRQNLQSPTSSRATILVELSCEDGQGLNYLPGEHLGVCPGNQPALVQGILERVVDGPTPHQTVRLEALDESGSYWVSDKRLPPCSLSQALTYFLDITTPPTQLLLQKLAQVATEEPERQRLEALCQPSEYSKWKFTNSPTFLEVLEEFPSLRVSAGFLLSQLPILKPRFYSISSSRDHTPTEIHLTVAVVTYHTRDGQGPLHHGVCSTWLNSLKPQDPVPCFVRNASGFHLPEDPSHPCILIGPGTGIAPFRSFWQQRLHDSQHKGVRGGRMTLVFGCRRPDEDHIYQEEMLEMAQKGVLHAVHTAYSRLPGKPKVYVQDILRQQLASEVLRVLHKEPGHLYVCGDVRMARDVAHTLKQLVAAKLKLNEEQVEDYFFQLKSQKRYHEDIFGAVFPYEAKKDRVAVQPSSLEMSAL
Tyrosine-protein phosphatase non-receptor type 1, sequence (P18031 whole entry): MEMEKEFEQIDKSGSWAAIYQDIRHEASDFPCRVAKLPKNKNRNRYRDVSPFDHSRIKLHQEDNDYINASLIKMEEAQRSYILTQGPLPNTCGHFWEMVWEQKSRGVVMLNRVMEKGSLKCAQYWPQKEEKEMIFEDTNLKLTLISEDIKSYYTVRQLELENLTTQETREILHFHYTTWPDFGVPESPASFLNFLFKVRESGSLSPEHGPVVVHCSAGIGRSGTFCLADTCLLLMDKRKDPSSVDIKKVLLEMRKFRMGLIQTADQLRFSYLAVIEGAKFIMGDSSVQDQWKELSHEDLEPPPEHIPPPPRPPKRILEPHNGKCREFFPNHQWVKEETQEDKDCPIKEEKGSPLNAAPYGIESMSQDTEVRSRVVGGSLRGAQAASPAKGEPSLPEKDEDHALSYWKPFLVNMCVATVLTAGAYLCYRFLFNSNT

Structure (SMILES): COc1cccc(CCc2ccc(O)c(O)c2)c1O
- IC50 [1]: 126 µM
- IC50 [2]: 434 µM

Structure (SMILES): COc1ccc(CCc2cc(OC)c(OC)c(OC)c2)cc1OC
- IC50 (NCI-H23): 252 µM

Structure (SMILES): COc1ccc(CCc2cc(OC)c(O)c(OC)c2)cc1OC
- IC50 (NCI-H23): 145 µM
- IC50 (NCI-H460 [3]): 127 µM
- Activity (PC-12 [4]): 58.89%
- Activity (PC-12 [5]): 55.02%
- Activity (PC-12 [6]): 52.72%
- Papp [7]: 4.1 ×10⁻⁶ cm/s
- IC50 [8]: 14 µM

Structure (SMILES): COc1ccc(CCc2cc(OC)c(OC)c(OC)c2)cc1O
- IC50 (T-24): 0.46 µM

Structure (SMILES): COc1cc([C@@H]2Oc3cc(CCc4ccc(O)cc4)cc(OC)c3O[C@H]2CO)cc(OC)c1O
- Activity (PC-12 [9]): 9.46%

Structure (SMILES): COc1ccc(CCc2cc(OC)c(OC(=O)c3ccccc3)c(OC)c2)cc1OC
- Activity (PC-12 [4]): 100.78%
- Activity (PC-12 [5]): 80.12%
- Activity (PC-12 [6]): 58.18%
- Papp [7]: 6.9 ×10⁻⁶ cm/s

Structure (SMILES): COc1cc2c(c(OC)c1O)-c1c(OC)cc(CCc3cccc(O)c3)cc1O[C@H]2[C@H](O)CO
- IC50 (K562): 10.3 µM
- IC50 (Bel-7402): 10 µM

Structure (SMILES): COc1cc(O)cc(CCc2ccc(O)c(OC)c2)c1 [GIGANTOL]
- IC50 (HL-60): 10.6 µM
- IC50 (THP-1): 23.3 µM
- IC50 (K562): 63.9 µM
- IC50 (SGC-7901): 17.4 µM
- IC50 (KB): 61.9 µM
- IC50 (Bel-7402): 13 µM
- IC50 (HepG2 [10]): 9.3 µM
- IC50 (MCF7 [11]): 67.8 µM
- IC50 (NCI-H460 [12]): 76.9 µM
- IC50 (NCI-H187): 235 µM
- IC50 [13]: 73.3 µM
- IC50 [8]: 17.7 µM

Structure (SMILES): COc1cc(CCc2cccc(O)c2)cc(O)c1OC
- IC50 (K562): 15.7 µM
- IC50 (SGC-7901): 7.8 µM
- IC50 (Bel-7402): 11.7 µM

Structure (SMILES): COc1ccc(CCc2cc(OC)c(OCc3ccccc3)c(OC)c2)cc1OC
- Activity (PC-12 [4]): 71%
- Activity (PC-12 [5]): 60.89%
- Activity (PC-12 [6]): 58.22%
- Papp [7]: 8.2 ×10⁻⁶ cm/s

Structure (SMILES): COc1cc(O)cc(CCc2ccc(O)c(O)c2)c1
- IC50 [1]: 176 µM
- IC50 [2]: 680 µM

Structure (SMILES): COc1cc(CCc2ccc(O)cc2)cc(OC)c1O
- IC50 (NCI-H292): 198 µM
- Activity (PC-12 [9]): 6.94%

Structure (SMILES): COc1cc(CCc2cccc(O)c2)cc(OC)c1O
- IC50 (HL-60): 4.48 µM
- IC50 (SGC-7901): 12.8 µM

Structure (SMILES): COc1cc(C[C@H](O)c2cc(O)cc(O)c2)ccc1O
- inhibition at 25 µM (RAW264.7 [14]): 15%

Structure (SMILES): COc1cc(CCc2cc(OC)c3c(c2)O[C@@H](c2cc(OC)c(O)c(OC)c2)[C@H](CO)O3)ccc1O
- Activity (PC-12 [9]): 7.86%

Structure (SMILES): COC1=CC(O)(CCc2ccc(O)c(OC)c2)C=C(OC)C1=O
- inhibition [15]: 35.3%
- inhibition at 25 µM (RAW264.7 [14]): 19.7%

Structure (SMILES): COc1ccc(CCc2cc3c(c(OC)c2)C[C@@H](CO)[C@H](c2ccc(O)c(OC)c2)C3)cc1
- IC50 (MCF7 [16]): 38.5 µM

Structure (SMILES): COc1ccc(CCc2cc(OC)c(OC3CCCC3)c(OC)c2)cc1OC
- Activity (PC-12 [4]): 72.64%
- Activity (PC-12 [5]): 61.02%
- Activity (PC-12 [6]): 54.77%
- Papp [7]: 7.6 ×10⁻⁶ cm/s

Structure (SMILES): COc1ccc(CC2c3cc(O)c(O)c(OC)c3Oc3cc(O)c4c(c32)CCc2cc(O)ccc2-4)cc1 (stereo unspecified)
- IC50 (MDA-MB-231): 25.2 µM
- IC50 (HepG2 [17]): 51.3 µM
- IC50 (HT-29): 30.4 µM

Structure (SMILES): COc1cc(CCc2cc(O)c(OC)c(OC)c2)ccc1O
- IC50 (SGC-7901): 16.7 µM

Structure (SMILES): COc1ccc(CCc2cc(OC)c3c(c2)O[C@H](c2cc(O)c(O)c(OC)c2)[C@@H](c2ccc(OC)cc2)O3)cc1
- IC50 (MDA-MB-231): 42.5 µM
- IC50 (HepG2 [17]): 89.7 µM
- IC50 (HT-29): 52 µM
- IC50 [8]: 21.3 µM

Structure (SMILES): COc1cc(CCc2cc(O)c(O)c(OC)c2)ccc1O
- IC50 (NCI-H292): 96.6 µM

Structure (SMILES): COc1cc(CC2c3cc(O)c(O)c(OC)c3Oc3cc(O)c4c(c32)CCc2cc(O)ccc2-4)ccc1O (stereo unspecified)
- inhibition at 50 µg/mL (RAW264.7 [18]): 65%
- inhibition at 50 µg/mL (RAW264.7 [19]): 70%
- inhibition at 50 µg/mL (RAW264.7 [20]): 65%

Structure (SMILES): COc1cc(CCc2cc(OC)c(OC)c(OC)c2)ccc1O
- IC50 (NCI-H23): 158 µM
- IC50 [8]: 21.8 µM

Structure (SMILES): COc1cc(CCc2cc(OC)c(O)c(OC)c2)ccc1O [MOSCATILIN]
- IC50 (HL-60): 0.082 µM
- IC50 (THP-1): 226 µM
- IC50 (NCI-H23): 33.4 µM
- IC50 (FaDu): 2.55 µM
- IC50 [8]: 17.1 µM

Structure (SMILES): COc1cc(CCc2cc(O)cc(O)c2)ccc1O [TRISTIN]
- IC50 (HL-60): 29.1 µM
- IC50 (THP-1): 13.5 µM
- IC50 [13]: 21.2 µM
- inhibition at 25 µM (RAW264.7 [14]): 27.2%

Structure (SMILES): COc1ccc(CCc2cc(OC)c(OC(=O)c3ccc(Cl)cc3)c(OC)c2)cc1OC
- Activity (PC-12 [4]): 95.62%
- Activity (PC-12 [5]): 69.24%
- Activity (PC-12 [6]): 56.41%
- Papp [7]: 6.2 ×10⁻⁶ cm/s

Structure (SMILES): COc1cc(O)cc(CCc2cccc(O)c2)c1 [BATATASIN III]
- Activity (PC-12 [9]): 8.2%
- inhibition [15]: 36.3%
- inhibition at 25 µM (RAW264.7 [14]): 21.6%

Structure (SMILES): Oc1cc(O)cc(CCc2ccc3c(c2)OCO3)c1
- inhibition [15]: 88%
- inhibition at 25 µM (RAW264.7 [14]): 22.1%

Structure (SMILES): COc1ccc(CCc2cc(O)c(O)c(OC)c2)cc1
- IC50 (HL-60): 10.7 µM
- IC50 (MDA-MB-231): 80.5 µM
- IC50 (HepG2 [17]): 138 µM
- IC50 (HT-29): 88.2 µM
- IC50 (Alpha amylase): 5990 µM

Structure (SMILES): COc1cc(O)cc(CCc2ccc(O)cc2)c1
- IC50 (HL-60): 25.6 µM
- Activity (PC-12 [9]): 12.08%
